Source: patent US9018383B2, “Acylamino-substituted cyclic carboxylic acid derivatives and their use as pharmaceuticals” (Sanofi, priority 2009, dated 2015)

Each molecule was assayed against human Edg-2 receptor (Homo sapiens, UniProt Q92633) (assay: Determination of Edg-2 receptor inhibition by FLIPR measurements (LPA-mediated calcium liberation)). Details: CHO cells overexpressing human Edg-2 receptor, LPA 100 nM, fluo-4 calcium fluorescence; read-out: Inhibitory concentrations IC50 for inhibition of the Edg-2 receptor.
Chain of human Edg-2 receptor (Q92633 whole entry): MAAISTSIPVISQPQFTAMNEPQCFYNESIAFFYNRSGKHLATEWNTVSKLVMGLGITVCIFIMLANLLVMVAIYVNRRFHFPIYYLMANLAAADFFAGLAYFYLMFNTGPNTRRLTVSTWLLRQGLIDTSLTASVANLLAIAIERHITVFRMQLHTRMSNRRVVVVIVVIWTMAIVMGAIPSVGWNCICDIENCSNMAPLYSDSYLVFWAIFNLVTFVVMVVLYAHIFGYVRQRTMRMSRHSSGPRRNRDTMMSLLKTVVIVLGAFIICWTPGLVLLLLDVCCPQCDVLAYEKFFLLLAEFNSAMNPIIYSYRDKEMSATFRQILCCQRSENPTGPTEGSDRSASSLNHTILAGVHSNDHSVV
Assay type: cell-based
Description: A) Determination of Edg-2 Receptor Inhibition by Fluorescence Imaging Plate Reader (FLIPR) Measurements
The inhibition of the Edg-2 receptor (LPA1 receptor) by the compounds of the invention was quantified by the inhibitory effect on the LPA-mediated calcium liberation in a cell-based calcium fluorescence assay by use of Chinese hamster ovarian (CHO) cells in which the human Edg-2 receptor was stably overexpressed (Flp-In system, Invitrogen). […] Changes in intracellular calcium were determined by fluorescence measurement with the calcium-sensitive dye fluo-4 (Invitrogen) in a fluorescence imaging plate reader (FLIPR, […]).
CHO cells stably overexpressing the human Edg-2 receptor were seeded (40.000 per well) in black clear-bottomed poly-D-lysine-coated 96 well plates (Becton Dickinson, Biocoat cellware) approximately 18-24 h prior to the experiments. Cells were grown in an incubator at 37° C., 5% carbon dioxide and 95% humidity in cell culture media based on F-12 glutamax media (Gibco, #31765) supplemented with 1% (vol/vol) penicilline/streptomycine (PAN, #P06-07100), 10% (vol/vol) fetal calf serum (FCS, PAA, #A15-151) and hygromycin B (Invitrogen, #10687-010) 300 mg/l (final concentrations).
Prior to the FLIPR experiment, cells were loaded with fluo-4 acetoxymethyl ester (fluo-4 AM, Invitrogen, #F14202) for 60 min in an incubator at 37° C., 5% carbon dioxide and 95% humidity in dye-loading buffer consisting of Hanks' Balanced Salt Solution (HBSS, Invitrogen, #14065049) supplemented with fluo-4 AM at 2 μM (all data given for final concentration), Pluronic® F-127 0.05% (vol/vol) (Invitrogen, #P-3000 MP), HEPES 20 mM (Gibco, #15630), probenecid 2.5 mM (Sigma, #P-8761) and bovine serum albumin 0.05% (BSA, Sigma, #A-6003), adjusted to pH 7.5 with sodium hydroxide. During cell loading, fluo-4 AM is cleaved by intracellular esterase resulting in trapping of the dye fluo-4 within the cells. Loading was terminated by washing of the cells in a cell washer (Tecan Power washer) three times with the buffer specified afore but without fluo-4 AM and BSA. This latter buffer was also used as the buffer in the subsequent cell fluorescence measurements.
The dye-loaded and washed cells were pre-incubated for approximately 5 min with various concentrations of the test compound added as a solution in DMSO (0.3% vol/vol maximum final concentration of DMSO), or with DMSO in the respective concentration only (positive control). Subsequent addition of LPA (18:1, 1-oleoyl-sn-glycerol 3-phosphate; 100 nM final concentration) leads to liberation of intracellular calcium from internal stores resulting in a large transient increase of the fluo-4 fluorescence signal which was monitored over approximately 3 min. The percent inhibition caused by the test compound was determined from the maximum fluorescence response after LPA addition to cells pre-incubated with the compound as compared to the maximum fluorescence response after LPA addition to cells pre-incubated with DMSO only. All fluorescence values were corrected for the baseline fluorescence values obtained with cells which were pre-incubated with DMSO only and were not treated with LPA (baseline control). All measurements were performed in triplicate. From the percent inhibitions the inhibitory concentration IC50 was determined.
`CC[C@H]1CC[C@](NC(=O)c2cnc(OC)c(-c3cc(F)cc(F)c3)c2)(C(=O)O)CC1` [Example 360, cis-1-{[5-(3,5-Difluoro-phenyl)-6-methoxy-pyridine-3-carbonyl]-amino}-4-ethyl-cyclohexanecarboxylic acid] showed an IC50 of under 100 nM.
`CC[C@H]1CC[C@@](NC(=O)c2ccc(OC)c(OCCc3cccc(CCO)c3)c2)(C(=O)O)CC1` [Example 112, trans-4-Ethyl-1-(3-{2-[3-(2-hydroxy-ethyl)-phenyl]-ethoxy}-4-methoxy-benzoylamino)-cyclohexanecarboxylic acid] showed an IC50 of under 100 nM.
For `COc1ccc(C(=O)N[C@]2(C(=O)O)CC[C@@H](C)CC2)cc1OCCc1cccc(C)c1` [Example 43, trans-1-[4-Methoxy-3-(2-m-tolyl-ethoxy)-benzoylamino]-4-methyl-cyclohexanecarboxylic acid], the IC50 was under 100 nM.
In the case of `COc1ccc(C(=O)NC2(C(=O)O)CCCCCC2)cc1OCCc1ccc(Cl)cc1Cl` [Example 15], the IC50 is reported as 1000 to 30000 nM.
`CC[C@H]1CC[C@](NC(=O)c2cc(OCCc3cccc(C)c3)c3c(c2)OCO3)(C(=O)O)CC1` [Example 134, cis-4-Ethyl-1-{[7-(2-m-tolyl-ethoxy)-benzo[1,3]dioxole-5-carbonyl]-amino}-cyclohexanecarboxylic acid] gave an IC50 of under 100 nM.
`COc1ccc(C(=O)NC2(C(=O)O)CCCC(C)C2)cc1OCCc1cccc(C)c1` (stereo not shown) [Example 372] was tested, and the IC50 was 100 to 1000 nM.
`COc1ccc(C(=O)NC2(C(=O)O)CCCCCC2)cc1OCCc1cccc(C(F)(F)F)c1` [Example 363] was tested, and the IC50 was 100 to 1000 nM.
`CC[C@H]1CC[C@](NC(=O)c2cnc(OCCO)c(-c3ccc(F)c(F)c3)c2)(C(=O)O)CC1` [Example 414] was tested, and the IC50 was under 100 nM.
Work on `COc1ccc(C(=O)NC2(C(=O)O)CCC(C(F)(F)F)CC2)cc1OCCc1cccc(C)c1` (stereo not shown) [Example 369] yielded an IC50 of 100 to 1000 nM.
For `C=C1CCC(NC(=O)c2ccc(OC)c(OCCc3cccc(C)c3)c2)(C(=O)O)CC1` [Example 56, 1-[4-Methoxy-3-(2-m-tolyl-ethoxy)-benzoylamino]-4-methylene-cyclohexanecarboxylic acid], the IC50 was under 100 nM.
Work on `COc1ccc(C(=O)NC2(C(=O)O)CCC(F)CC2)cc1OCCc1cccc(C)c1` (stereo not shown) [Example 44] yielded an IC50 of 100 to 1000 nM.
`CC[C@H]1CC[C@](NC(=O)c2ccc(CCS(C)(=O)=O)c(OCCc3cccc(C)c3)c2)(C(=O)O)CC1` [Example 462, Cis-4-Ethyl-1-[4-(2-methanesulfonyl-ethyl)-3-(2-m-tolyl-ethoxy)-benzoylamino]-cyclohexanecarboxylic acid] was tested, and the IC50 was 100 to 1000 nM.
Molecule `CCC(COc1cc(C(=O)NC2(C(=O)O)CCCCCC2)ccc1OC)c1ccccc1` (stereo not shown) [Example 14] has an IC50 of 100 to 1000 nM.
With `COc1ccc(C(=O)NC2(C(=O)O)CCCCCC2)cc1OCCc1ccsc1` [Example 11, 1-{3-[2-(thiophen-3-yl)-ethoxy]-4-methoxy-benzoylamino]-cycloheptanecarboxylic acid] the IC50 was 100 to 1000 nM.
`CC[C@H]1CC[C@@](NC(=O)c2cnc(OC)c(OCCc3ccccc3)c2)(C(=O)O)CC1` [Example 355, trans-4-Ethyl-1-[(6-methoxy-5-phenethyloxy-pyridine-3-carbonyl)-amino]-cyclohexanecarboxylic acid] gave an IC50 of under 100 nM.
`Cc1cccc(CCOc2cc(C(=O)NC3(C(=O)O)CCCCCC3)cc3c2OCO3)c1` [Example 132, 1-{[7-(2-m-Tolyl-ethoxy)-benzo[1,3]dioxole-5-carbonyl]-amino}-cycloheptanecarboxylic acid] showed an IC50 of under 100 nM.
For `COc1ncc(C(=O)N[C@]2(C(=O)O)CC[C@H](C)CC2)cc1-c1cccc(Cl)c1Cl` [Example 310], the IC50 was under 100 nM.
`COc1ccc(C(=O)NC2(C(=O)O)CCC3(CC2)OCCO3)cc1OCCc1cccc(C)c1` [Example 54, 8-[4-Methoxy-3-(2-m-tolyl-ethoxy)-benzoylamino]-1,4-dioxa-spiro[4.5]decane-8-carboxylic acid] gave an IC50 of under 100 nM.
Molecule `COc1ccc(C(=O)NC2(C(=O)O)CCCCCC2)c(F)c1OCCc1cccc(C)c1` [Example 69, 1-[2-Fluoro-4-methoxy-3-(2-m-tolyl-ethoxy)-benzoylamino]-cycloheptanecarboxylic acid] has an IC50 of 100 to 1000 nM.
`COc1ccc(C(=O)NC2(C(=O)O)CCCC(C)CC2)cc1OCCc1cccc(C)c1` (stereo not shown) [Example 26] was tested, and the IC50 was under 100 nM.
In the case of `COc1ccc(C(=O)NC2(C(=O)O)CCC=CCC2)cc1OCCc1cccc(C)c1` [Example 74, 1-[4-Methoxy-3-(2-m-tolyl-ethoxy)-benzoylamino]-cyclohept-4-enecarboxylic acid], the IC50 is reported as under 100 nM.
`COc1ccc(C(=O)NC2(C(=O)O)CCCCCC2)cc1OCC(F)(F)c1ccccc1` [Example 71, 1-[3-(2,2-Difluoro-2-phenyl-ethoxy)-4-methoxy-benzoylamino]-cycloheptanecarboxylic acid] gave an IC50 of under 100 nM.
Molecule `COc1ccc(C(=O)NC2(C(=O)O)CCCCCC2)cc1OCCc1ccccc1` [Example 8] has an IC50 of under 100 nM.
`COc1c(F)cc(C(=O)NC2(C(=O)O)CCCCCC2)cc1OCCc1cccc(C)c1` [Example 70, 1-[3-Fluoro-4-methoxy-5-(2-m-tolyl-ethoxy)-benzoylamino]-cycloheptanecarboxylic acid] gave an IC50 of under 100 nM.
`COc1ccc(C(=O)NC2(C(=O)O)CCC(C(C)(C)C)CC2)cc1OCCc1cccc(C)c1` (stereo not shown) [Example 366] was tested, and the IC50 was 100 to 1000 nM.
Work on `COc1ccc(C(=O)NC2(C(=O)O)CCCCCC2)cc1OCC1CC=CCC1` (stereo not shown) [Example 12] yielded an IC50 of 100 to 1000 nM.
`COc1ccc(C(=O)NC2(C(=O)O)CCCCC2)cc1OCCc1cccc(C)c1` [Example 38] gave an IC50 of 100 to 1000 nM.
`C[C@H]1CC[C@](NC(=O)c2ccc(OCCO)c(OCCc3cccc(Cl)c3)c2)(C(=O)O)CC1` [Example 119, cis-1-[3-[2-(3-Chloro-phenyl)-ethoxy]-4-(2-hydroxy-ethoxy)-benzoylamino]-4-methyl-cyclohexanecarboxylic acid] showed an IC50 of under 100 nM.
`COc1ccc(C(=O)N[C@]2(C(=O)O)CC[C@@H](C)CC2)cc1OCCc1cccc(CCO)c1` [Example 110, trans-1-(3-{2-[3-(2-Hydroxy-ethyl)-phenyl]-ethoxy}-4-methoxy-benzoylamino)-4-methyl-cyclohexanecarboxylic acid] gave an IC50 of under 100 nM.
With `COc1ncc(C(=O)N[C@]2(C(=O)O)CC[C@@H](C)CC2)cc1-c1cc(Cl)cc(C(F)(F)F)c1` [Example 315] the IC50 was under 100 nM.
`CCc1ncc(C(=O)N[C@]2(C(=O)O)CC[C@H](C)CC2)cc1OCCc1cccc(Cl)c1` [Example 435, cis-1-({5-[2-(3-Chloro-phenyl)-ethoxy]-6-ethyl-pyridine-3-carbonyl}-amino)-4-methyl-cyclohexanecarboxylic acid] showed an IC50 of 100 to 1000 nM.
Molecule `COc1cccc(CCOc2cc(C(=O)NC3(C(=O)O)CCCCCC3)ccc2OC)c1` [Example 7] has an IC50 of under 100 nM.
Molecule `COc1ccc(C(=O)NC2(C(=O)O)CCCCCC2)cc1OCCc1cccc(C)c1` [Example 2, 1-[4-Methoxy-3-(2-m-tolyl-ethoxy)-benzoylamino]-cycloheptanecarboxylic acid] has an IC50 of under 100 nM.
`COc1ncc(C(=O)NC2(C(=O)O)CCCCCC2)cc1-c1cccc(C#N)c1` [Example 92, 1-{[5-(3-Cyano-phenyl)-6-methoxy-pyridine-3-carbonyl]-amino}-cycloheptanecarboxylic acid] showed an IC50 of 1000 to 30000 nM.
`CC[C@H]1CC[C@@](NC(=O)c2cc(OCCc3cccc(Cl)c3)c(C(C)=O)s2)(C(=O)O)CC1` [Example 439, trans-1-({5-Acetyl-4-[2-(3-chloro-phenyl)-ethoxy]-thiophene-2-carbonyl}-amino)-4-ethyl-cyclohexanecarboxylic acid] showed an IC50 of 100 to 1000 nM.
For `CC[C@H]1CC[C@](NC(=O)c2cnc(OCCO)c(-c3cccc(OC(F)(F)F)c3)c2)(C(=O)O)CC1` [Example 416], the IC50 was under 100 nM.
In the case of `COCCOc1ccc(C(=O)NC2(C(=O)O)CCCCCC2)cc1OCCc1cccc(Cl)c1` [Example 115, 1-[3-[2-(3-Chloro-phenyl)-ethoxy]-4-(2-methoxy-ethoxy)-benzoylamino]-cycloheptanecarboxylic acid], the IC50 is reported as 1000 to 30000 nM.
